{"source": "patent US20120142705A1", "about": "“ISATIN AND OXINDOLE COMPOUNDS” (priority 2010, published 2012)", "data": [{"target": "T1, Recombinant human liver GK1 (GST-GK) (Homo sapiens, UniProt P35557)", "T1 construct": "made in house; host or cells: E. coli", "T1 sequence (P35557 1-466 isoform P35557-2)": "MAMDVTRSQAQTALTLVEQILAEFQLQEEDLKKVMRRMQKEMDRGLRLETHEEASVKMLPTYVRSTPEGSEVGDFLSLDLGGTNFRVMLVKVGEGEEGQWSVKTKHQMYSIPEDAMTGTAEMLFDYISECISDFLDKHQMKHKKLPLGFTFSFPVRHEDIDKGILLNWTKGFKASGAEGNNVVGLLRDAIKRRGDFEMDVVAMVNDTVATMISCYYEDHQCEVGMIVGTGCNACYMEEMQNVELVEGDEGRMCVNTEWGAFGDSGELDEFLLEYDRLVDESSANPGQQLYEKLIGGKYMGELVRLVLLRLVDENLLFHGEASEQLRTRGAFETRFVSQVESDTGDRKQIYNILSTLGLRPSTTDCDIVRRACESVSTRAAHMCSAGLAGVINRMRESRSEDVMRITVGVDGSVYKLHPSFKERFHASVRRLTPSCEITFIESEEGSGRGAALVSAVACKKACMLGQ", "assay": "In vitro glucokinase activity, G6PDH-coupled spectrophotometric assay", "assay_type": "biochemical", "details": "5 mM D-glucose, 30° C., pH 7.1", "summary_of_the_method": "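GST-fused human liver GK1 from E. coli, run at 30° C. in pH 7.1 HEPES with 5 mM glucose, 1 mM ATP and 10% DMSO, coupled via G6PDH to NADH. OD340 rate measured after enzyme start; SC1.5 is the activator concentration raising activity 50% over DMSO control.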", "units": {"SC1.5 (concentration of activator that produced a 50% increase in the activity of GK)": "µM"}, "values": [{"smiles": "COc1ccc2c(c1)CC(=O)N2C(CC1CCCC1)C(=O)Nc1ccccn1", "note": "(stereo not shown) [Example 49, 3-Cyclopentyl-2-(5-methoxy-2-oxo-2,3-dihydro-indol-1-yl)-N-pyridin-2-yl-propionamide]", "SC1.5 (concentration of activator that produced a 50% increase in the activity of GK)": 1.74}, {"smiles": "CC(C)CC(C(=O)Nc1ccccn1)N1C(=O)Cc2cc(OC(F)(F)F)ccc21", "note": "(stereo not shown) [Example 43, 4-Methyl-2-(2-oxo-5-trifluoromethoxy-2,3-dihydro-indol-1-yl)-pentanoic acid pyridin-2-ylamide]", "SC1.5 (concentration of activator that produced a 50% increase in the activity of GK)": 1.41}, {"smiles": "O=C(Nc1nccs1)C(CC1CCCC1)N1C(=O)Cc2c(Cl)cccc21", "note": "(stereo not shown) [Example 22, 2-(4-Chloro-2-oxo-2,3-dihydro-indol-1-yl)-3-cyclopentyl-N-thiazol-2-yl-propionamide]", "SC1.5 (concentration of activator that produced a 50% increase in the activity of GK)": 1.98}, {"smiles": "Cc1ccc2c(c1)C(=O)C(=O)N2C(CC1CCCC1)C(=O)Nc1ccn(C)n1", "note": "(stereo not shown) [Example 78, 3-Cyclopentyl-2-(5-methyl-2,3-dioxo-2,3-dihydro-indol-1-yl)-N-(1-methyl-1H-pyrazol-3-yl)-propionamide]", "SC1.5 (concentration of activator that produced a 50% increase in the activity of GK)": 29.38}]}]}
